According to US7220780B2, “Naaladase inhibitors for treating retinal disorders and glaucoma” (Guilford Pharmaceuticals Inc., priority 2000, dated 2007):
Peptide text beside a SMILES is read from it.

Tests used:
male Brown Norway rats [1] = test: Experimental rat glaucoma (IOP elevation by hypertonic saline), optic nerve fiber counting; type: in vivo; details: 10 mg/kg daily i.p.
Description: (§1) All experiments complied with the Association for Research in Vision and Ophthalmology Statement for the Use of Animals in Ophthalmic and Vision Research. 82 male Brown Norway rats (Rattus norvegicus), each weighing approximately 250 gm, were treated using procedures approved by the Animal Care Committee of the Johns Hopkins University School of Medicine. The rats were housed with a 12 hour light/12 hour dark cycle and fed ad libitum .
EXPERIMENTAL GLAUCOMA: Unilateral elevation of IOP was produced in 56 rats by microinjection of hypertonic saline into episcleral veins, following procedures described in Morrison, J. et al., IOVS (March 1998) 39:526-531. Beginning on the day of IOP elevation, the rats were treated daily with intraperitoneal injections of either a vehicle (23 rats with 50 mM HEPES-buffered saline) or a NAALADase inhibitor (11 rats with 10 mg/kg of 2-[[(2,3,4,5,6-pentafluorobenzyl)hydroxyphosphinyl]-methyl]pentanedioic acid (“Compound A”) and 22 rats with 10 mg/kg of 2-(3-sulfanylpropyl)pentanedioic acid (“Compound B”)). 11 saline treated rats, 11 Compound A treated rats and 11 Compound B treated rats were sacrificed at 8 weeks, and the remaining rats at 12 weeks, after initial IOP elevation.
(§2) OPTIC NERVE COUNTING: The rats were sacrificed by exsanguination under deep pentobarbital anesthesia. They were perfused through the heart with 2% paraformaldehyde/2% glutaraldehyde in 0.1 M phosphate buffer, pH 7.2, and the eyes with attached optic nerves were removed. A cross-section of the optic nerve from both experimental (glaucoma or transection) and control eyes was removed 1.5 mm posterior to the globe, 1 mm in thickness, and post-fixed in 2% osmium tetroxide in buffer. These were processed into epoxy resin, sectioned at 1 micron and stained with toluidine blue.
(§3) The area of the optic nerve cross-section was measured by outlining its outer border at 10×magnification on an image analysis system (Universal Imaging Corp., Westchester, Pa.) with Synsys digital camera and Metamorph software. Three area measurements were taken and the mean value was determined. To measure the density and fiber diameter distributions, images were captured with a 100× phase contrast objective from 10 different areas of each nerve. These were edited to eliminate non-neural objects and the size of each axon internal to the myelin sheath (its minimum diameter) and the density of axons/square mm were calculated for each image and nerve. The mean density was multiplied by total nerve area to yield fiber number for each nerve. The total fiber number in glaucoma or transection nerves was compared to the normal, fellow eye of each rat to yield a percent loss value. The number of axons counted among the 10 images was an approximately 20% sample of the 80-90,000 axons in normal rat nerves. The person measuring axon number was masked to the protocol conducted on the nerves.

male Brown Norway rats [2] = test: Optic nerve transection in rats, optic nerve fiber counting; type: in vivo, Rattus norvegicus; details: for FIBER NUMBER ± SEM / PERCENT DIFFERENCE ± SEM: 10 mg/kg daily i.p.; for PERCENT DIFFERENCE ± SEM: transected vs normal eye
Description: as §1
OPTIC NERVE TRANSECTION: The optic nerve was transected unilaterally in 26 rats under intraperitoneal pentobarbital anesthesia. The conjunctiva was opened with scissors and the optic nerve exposed by traction on extraocular muscles. The transection was performed with microscissors 5 mm posterior to the globe, with specific attention to avoidance of injury to major ocular blood vessels. Immediately after transection, the retina was examined ophthalmoscopically to assure that the retinal arterial blood supply was not disrupted. The conjunctiva was closed with absorbable suture and the eye dressed with antibiotic ointment. Beginning on the day of transection, the rats were treated daily with intraperitoneal injections of either a vehicle (9 rats with 50 mM HEPES-buffered saline) or a NAALADase inhibitor (8 rats with 10 mg/kg of Compound A and 9 rats with 10 mg/kg of Compound B). 5 saline treated rats, 3 Compound A treated rats and 4 Compound B treated rats were sacrificed at 2 weeks, and the remaining rats at 4 weeks, after transection.
as §2, §3

BB/W rats = test: Retinal pathology in diabetic BB/W rats (basement membrane thickness, E/P ratio); type: in vivo, rat; details: for BM THICKNESS (nm) ± SD (n = 3) / E/P RATIO (n = 8–10): diabetic rats
Description: Four (4) groups of rats received daily insulin injections to maintain their glucose levels at about 350 mg/dl. Starting at the onset of hyperglycemia, NAALADase inhibitor 2-(3-sulfanylpropyl)-pentanedioic acid was administered daily for 6 months to one group of BB/W rats at a dose of 10 mg/kg and to a second group of BB/W rats at a dose of 30 mg/kg. A third group of BB/W rats and a fourth group of non-diabetic rats received daily vehicle treatment (50 mM Hepes buffered saline).
After six (6) months of NAALADase inhibitor or vehicle treatment, the rats were sacrificed and their eyes were removed. From each rat, one eye was processed for elastase digest while the other eye was processed for transmission electron microscopy (TEM) and basement membrane (BM) thickness.
Retinal digests were prepared using elastase on retinas as described in Layer, N. , Invest Ophthalmol Vis Sci (1993) 34:2097. Eyes were removed from recently killed BB/W rats (n=25) and age-matched transgenic controls (n=10). The retinas (n=35) were fixed at room temperature by immersing the whole eye (slit at limbus) in 4% (w/v) paraformaldehyde in 50 mmol/L Na-K phosphate buffer with 8% sucrose. The fixed retinas were rinsed in deionized water and were incubated for 3 minutes in a 37° C. agitating water bath in 40 units/mL elastase in Na-K phosphate buffer with 150 mmol/L NaCl and 5 mmol/L ethylenediamine tetraacetic acid (EDTA), pH 6.5. The tissues were washed overnight in 100 mmol/L Tris-HCL (pH 8.5) and then transferred to deionized water for removal of the loosened vitreous and digested neural elements by gentle agitation using the sides of closed forceps and the sides and ends of very fine brushes. After all loose tissues were removed, the retinas were incubated once more in fresh enzyme for 3 minutes and then subjected to a second overnight wash at room temperature in Tns-HCl buffer. On the third day, the retinas were again transferred to deionized water for additional removal of digested neural elements. The vascular network that was completely free of nonvascular elements was mounted flat by flotation in Ca^2+ and Mg^2+ free Dulbecco's PBS on siliconized slides (#S1308, Oncor, Gaithersburg, Md.). After air drying in a dust free environment, the mounts of the retinal microvasculature were stained using periodic acid Schiff reaction and hematoxylin counterstaining, as described in Luna, L., ed. Manual of Histologic Staining Methods of the Armed Forces Institute of Pathology (1968) McGraw-Hill, New York, N.Y. The preparations were then examined by light microscopy and photographed.
The stained and intact retinal whole mounts were coded and subsequent counting was done masked, as described in Cuthbertson, R., Invest Ophthalmol Vis Sci. (1986) 27:1659-1664).
Ten fields at ×100 magnification were counted for endothelial and pericyte cells using previously described morphologic criteria (see Kuwabara, T., Arch Ophthalmol. (1960) 64:904-911). In every sample, at least 200 cells were counted from the mid zone of the retina. Mean values for endothelial cell/pericyte (E/P) ratios were initially calculated in 3 retinas from each of the four (4) groups of rats.
Each eye was fixed in 4% glutaraldehyde and dissected free of sclera and choroids, then trimmed and postfixed in 1% osmium tetroxide. After dehydration and embedding, thin sections were stained with uranyl acetate and lead citrate. Initially, EM thickness of retinal capillaries from 3 non-diabetic rats receiving vehicle, 3 diabetic animals receiving 10 mg/kg 2-(3-sulfanylpropyl)-pentanedioic acid, and 3 diabetic rats receiving 30 mg/kg 2-(3-sulfanylpropyl)-pentanedioic acid were compared with 3 diabetic rats receiving a vehicle. At least 10 capillaries per eye from the inner nuclear and plexiform layers were photographed at a magnification of 10,000×. Exact magnification was determined for each set of negatives with a 28,800 line/inch calibration grid. Negatives were enlarged 3×. […]

NAALADase = NAALADase (Rattus norvegicus, UniProt P70627); details: NAAG as substrate of NAALADase; cited from earlier work
[3] = 2 weeks survival after transection
[4] = 4 weeks survival after transection
[5] = 10 mg/kg daily for 6 months, 10 mg/kg
[6] = 10 mg/kg daily for 6 months, listed as NAALADASE INHIBITOR, 10 mg/kg
[7] = 30 mg/kg daily for 6 months, 30 mg/kg
[8] = 30 mg/kg daily for 6 months, listed as NAAALADASE INHIBITOR, 30 mg/kg
[9] = high dose (30 mg/kg), six months, vs diabetic vehicle
[10] = low dose (10 mg/kg), six months, vs diabetic vehicle

NAALADase, sequence (P70627 whole entry): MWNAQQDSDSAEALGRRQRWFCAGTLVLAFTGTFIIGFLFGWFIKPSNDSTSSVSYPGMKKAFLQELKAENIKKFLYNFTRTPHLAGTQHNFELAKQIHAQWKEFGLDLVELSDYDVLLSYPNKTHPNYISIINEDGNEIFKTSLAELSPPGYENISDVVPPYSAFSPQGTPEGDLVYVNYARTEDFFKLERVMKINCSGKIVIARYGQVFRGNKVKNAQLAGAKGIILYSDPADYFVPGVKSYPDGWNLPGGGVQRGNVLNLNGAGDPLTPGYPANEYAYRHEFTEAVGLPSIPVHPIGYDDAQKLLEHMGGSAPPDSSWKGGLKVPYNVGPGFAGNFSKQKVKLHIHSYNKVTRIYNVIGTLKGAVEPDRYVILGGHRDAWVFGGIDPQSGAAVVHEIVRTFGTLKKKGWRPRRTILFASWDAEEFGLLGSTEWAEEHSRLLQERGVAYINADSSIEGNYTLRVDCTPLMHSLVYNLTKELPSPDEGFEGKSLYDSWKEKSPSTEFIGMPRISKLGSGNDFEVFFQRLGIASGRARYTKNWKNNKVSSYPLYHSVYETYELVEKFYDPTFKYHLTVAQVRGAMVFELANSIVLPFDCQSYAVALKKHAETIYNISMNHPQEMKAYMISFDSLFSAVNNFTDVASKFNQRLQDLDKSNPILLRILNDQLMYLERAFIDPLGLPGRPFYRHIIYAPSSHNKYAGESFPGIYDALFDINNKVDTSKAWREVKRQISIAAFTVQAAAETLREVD

With `O=C(O)CCC(CCCS)C(=O)O` (stereo not drawn) [Compound B, 2-(3-sulfanylpropyl)pentanedioic acid] the “FIBER NUMBER ± SEM” value (male Brown Norway rats [1]; 8 week group) was 80785 ± 2121, the “PERCENT DIFFERENCE ± SEM” value (male Brown Norway rats [1]; 8 week group, fiber number glaucoma vs normal eye, positive = fewer fibers in glaucoma eye) was −0.82 ± 2.97% and the “IOP INTEGRAL DIFFERENCE ± SEM” value (male Brown Norway rats [1]; 8 week group, glaucoma eye vs normal eye) was 116 ± 33.2 mm Hg—days. The “FIBER NUMBER” value (male Brown Norway rats [1]; 12 week group) was 90504 ± 1718, the “PERCENT DIFFERENCE” value (male Brown Norway rats [1]; 12 week group, fiber number glaucoma vs normal eye) was −3.21 ± 2.86% and the “IOP INTEGRAL DIFFERENCE” value (male Brown Norway rats [1]; 12 week group, glaucoma eye vs normal eye) was 109 ± 45.2 mm Hg—days. The “remaining axons relative to the saline-treated rats” value (male Brown Norway rats [2]; 2 weeks after transection) was “twice”, the “FIBER NUMBER ± SEM” value (male Brown Norway rats [2]; [3]) was 19,550 ± 5,091 and the “PERCENT DIFFERENCE ± SEM” value (male Brown Norway rats [2]; [3]) was 75.3 ± 6.6%. The “FIBER NUMBER ± SEM” value (male Brown Norway rats [2]; [4]) was 5,162 ± 2,509, the “PERCENT DIFFERENCE ± SEM” value (male Brown Norway rats [2]; [4]) was 93.4 ± 3.1% and the “BM THICKNESS (nm) ± SD (n = 3)” value (BB/W rats; [5]) was 82.3±4.07 nm. For the same molecule, the “E/P RATIO (n = 8–10)” value (BB/W rats; [5]) was 2.4±0.5, the “BM THICKNESS (nm) ± SD (n = 3)” value (BB/W rats; [6]) was 82.3 ± 4.07 nm and the “E/P RATIO (n = 8–10)” value (BB/W rats; [6]) was 2.4 ± 0.5. The “BM THICKNESS (nm) ± SD (n = 3)” value (BB/W rats; [7]) was 71.7±4.07 nm, the “E/P RATIO (n = 8–10)” value (BB/W rats; [7]) was 1.9±0.4 and the “BM THICKNESS (nm) ± SD (n = 3)” value (BB/W rats; [8]) was 71.7 ± 4.07 nm. The “E/P RATIO (n = 8–10)” value (BB/W rats; [8]) was 1.9 ± 0.4, the “reduction in BM thickness” value (BB/W rats; [9]) was 29.0% and the “reduction of E/P ratios” value (BB/W rats; [9]) was 37%. For the same molecule, the “decrease in BM thickness” value (BB/W rats; [10]) was 18.5% and the “reduction of E/P ratios” value (BB/W rats; [10]) was 20%.

In the case of `CC(=O)N[C@@H](CC(=O)O)C(=O)N[C@@H](CCC(=O)O)C(=O)O` [NAAG, N-acetyl-aspartyl-glutamate] (Ac-Asp-Glu-OH), the Km (NAALADase) is listed as 0.54 µM.
